Key:
[1] = test system: NT receptors (NTRS1, NTRS2, NTRS3) on HT-29 cells; assay: In vitro specific binding / competition assay with all NT receptors blocked; design: species or system human; conditions: antagonists applied together: 70 nM NTRC 824, 30 nM SR 48692, 10 nM SR 142948, […]; uptake profile almost linear
Procedure: In order to evaluate the specific binding due to the exclusive interaction of the peptide with its receptors, a competition assay was performed. This assay in which all NT receptors are blocked before incubating the labelled peptide is intended to highlight non-specific binding of NT to the cells. […] For this assessment, three different NT receptors antagonists were used, each having a preferential increased affinity for one of the receptors, allowing the blocking of all NTRs at the same time:
Afterwards, the medium containing unbound antagonists was removed and the cells were washed with 2 mL of fresh DMEM medium.

HT-29 cells = test system: HT-29 cells; design: method as in PMID 9023294; conditions: cited from earlier work
NTRS2 = test system: NTRS2; design: method as in PMID 25157640; conditions: cited from earlier work

Row | Compound | effect of antagonists on ^68Ga-DOTA-NT binding to colon HT-29 tumour cells [1] | inhibition of [^125I]ITyr^3-NT specific binding to HT-29 cells (HT-29 cells) | selectivity for NTRS2 over NTRS1 (NTRS2)
1 | 2-[[5-(2,6-dimethoxyphenyl)-1-(4-(N-(3-dimethylaminopropyl)-N-methylcabamoyl)-2-isopropylphenyl)-1H-pyrazole-3-carbonyl]amino]adamantane-2-carboxylic acid [SR 142948] | inhibit | completely inhibits | –
2 | Cc1ccc(S(=O)(=O)Nc2ccc3c(c2)c(C(=O)C(F)(F)F)cn3CC(=O)N[C@@H](CC(C)C)C(=O)O)cc1 [NTRC 824, N-[2-[5-[[(4-Methylphenyl)sulfonyl]amino]-3-(trifluoroacetyl)-1H-indol-1-yl]acetyl]-L-leucine] | inhibit | – | 150 fold
3 | COc1cccc(OC)c1-c1cc(C(=O)NC2(C(=O)O)C3CC4CC(C3)CC2C4)nn1-c1ccnc2cc(Cl)ccc12 (centres unmarked) [SR 48692, 2-[[1-(7-chloroquinolin-4-yl)-5-(2,6-dimethoxyphenyl)-1H-pyrazol-3-carbonyl]amino] adamantane-2-carboxylic acid] | inhibit | – | –
